Experiments:
Test in all cases: DiscoverX KINOMEscan kinase profiling (468 assays)
Format in all cases: binding
[1] = target: human kinome (Homo sapiens, UniProt P42336, I800L); conditions: read-out: Percent Control
Method: (§1) Kinomescan Kinase Profiling Assay
(§2) Kinomescan Assay was performed at DiscoverRX and described in Fabian, et al. 2005, Nat.
(§3) Biotechnol. In brief, kinases were produced and subsequently tagged with DNA for qPCR detection.
(§4) Streptavidin-coated magnetic beads were bound to biotinylated kinase ligands to serve as a solid support.
(§5) VIP152 was dissolved in DMSO and tested across a 10 serial threefold dilution set and compared to a test
(§6) compound and a DMSO control.
(§7) Kinome map was produced via TreeSpot
(§8) Analysis from DiscoverRX. […]

[2] = target: human kinome (Homo sapiens, UniProt Q8NG66); conditions: read-out: Percent Control
Method: as §1, §2, §3, §4, §5, §6, §7, §8

[3] = target: human kinome (Homo sapiens, UniProt P00533, G719S); conditions: EGFR(G719S); 100 nM; read-out: Percent Control
Method: as §1, §2, §3, §4, §5, §6, §7, §8

[4] = target: human kinome (Homo sapiens, UniProt Q14004); conditions: read-out: Percent Control
Method: as §1, §2, §3, §4, §5, §6, §7, §8

[5] = target: human kinome (Homo sapiens, UniProt Q06418); conditions: kinase TYRO3 (Entrez TYRO3); compound concentration 1000 nM; read-out: Percent Control
Method: as §1, §2, §3, §4, §5, §6, §7, §8

[6] = target: human kinome (Homo sapiens, UniProt P49336); conditions: CDK8; 100 nM; read-out: Percent Control
Method: as §1, §2, §3, §4, §5, §6, §7, §8

[7] = target: human kinome (Homo sapiens, UniProt P53779); conditions: JNK3 (Entrez MAPK10); 100 nM; read-out: Percent Control
Method: as §1, §2, §3, §4, §5, §6, §7, §8

[8] = target: human kinome (Homo sapiens, UniProt P35626); conditions: GRK3 (Entrez ADRBK2); 100 nM; read-out: Percent Control
Method: as §1, §2, §3, §4, §5, §6, §7, §8

[9] = target: human kinome (Homo sapiens, UniProt Q05655); conditions: read-out: Percent Control
Method: as §1, §2, §3, §4, §5, §6, §7, §8

[10] = target: human kinome (Homo sapiens, UniProt Q9H0K1); conditions: kinase SIK2 (Entrez SIK2); compound concentration 1000 nM; read-out: Percent Control
Method: as §1, §2, §3, §4, §5, §6, §7, §8

[11] = target: human kinome (Homo sapiens, UniProt O15530); conditions: read-out: Percent Control
Method: as §1, §2, §3, §4, §5, §6, §7, §8

[12] = target: human kinome (Homo sapiens, UniProt P43403); conditions: kinase ZAP70 (Entrez ZAP70); compound concentration 1000 nM; read-out: Percent Control
Method: as §1, §2, §3, §4, §5, §6, §7, §8

[13] = target: human kinome (Homo sapiens, UniProt Q13627); conditions: DYRK1A; 100 nM; read-out: Percent Control
Method: as §1, §2, §3, §4, §5, §6, §7, §8

[14] = target: human kinome (Homo sapiens, UniProt Q8IW41); conditions: MAPKAPK5; 100 nM; read-out: Percent Control
Method: as §1, §2, §3, §4, §5, §6, §7, §8

[15] = target: human kinome (Homo sapiens, UniProt Q96Q40); conditions: read-out: Percent Control
Method: as §1, §2, §3, §4, §5, §6, §7, §8

[16] = target: human kinome (Homo sapiens, UniProt Q9H4A3); conditions: kinase WNK1 (Entrez WNK1); compound concentration 1000 nM; read-out: Percent Control
Method: as §1, §2, §3, §4, §5, §6, §7, §8

[17] = target: human kinome (Homo sapiens, UniProt Q13882); conditions: BRK (Entrez PTK6); 100 nM; read-out: Percent Control
Method: as §1, §2, §3, §4, §5, §6, §7, §8

[18] = target: human kinome (Homo sapiens, UniProt Q96BR1); conditions: kinase SGK3 (Entrez SGK3); compound concentration 1000 nM; read-out: Percent Control
Method: as §1, §2, §3, §4, §5, §6, §7, §8

[19] = target: human kinome (Homo sapiens, UniProt Q9UKE5); conditions: kinase TNIK (Entrez TNIK); compound concentration 1000 nM; read-out: Percent Control
Method: as §1, §2, §3, §4, §5, §6, §7, §8

[20] = target: human kinome (Homo sapiens, UniProt P29317); conditions: EPHA2; 100 nM; read-out: Percent Control
Method: as §1, §2, §3, §4, §5, §6, §7, §8

[21] = target: human kinome (Homo sapiens, UniProt P32298); conditions: GRK4; 100 nM; read-out: Percent Control
Method: as §1, §2, §3, §4, §5, §6, §7, §8

[22] = target: human kinome (Homo sapiens, UniProt Q9UQM7); conditions: CAMK2A; 100 nM; read-out: Percent Control
Method: as §1, §2, §3, §4, §5, §6, §7, §8

[23] = target: human kinome (Homo sapiens, UniProt P42336); conditions: read-out: Percent Control
Method: as §1, §2, §3, §4, §5, §6, §7, §8

[24] = target: human kinome (Homo sapiens, UniProt Q13233); conditions: MAP3K1; 100 nM; read-out: Percent Control
Method: as §1, §2, §3, §4, §5, §6, §7, §8

[25] = target: human kinome (Homo sapiens, UniProt Q9Y463); conditions: DYRK1B; 100 nM; read-out: Percent Control
Method: as §1, §2, §3, §4, §5, §6, §7, §8

[26] = target: human kinome (Homo sapiens, UniProt Q15569); conditions: kinase TESK1 (Entrez TESK1); compound concentration 1000 nM; read-out: Percent Control
Method: as §1, §2, §3, §4, §5, §6, §7, §8

[27] = target: human kinome (Homo sapiens, UniProt P29323); conditions: EPHB2; 100 nM; read-out: Percent Control
Method: as §1, §2, §3, §4, §5, §6, §7, §8

[28] = target: human kinome (Homo sapiens, UniProt Q5S007, G2019S); conditions: LRRK2(G2019S); 100 nM; read-out: Percent Control
Method: as §1, §2, §3, §4, §5, §6, §7, §8

[29] = target: human kinome (Homo sapiens, UniProt P68400); conditions: CSNK2A1; 100 nM; read-out: Percent Control
Method: as §1, §2, §3, §4, §5, §6, §7, §8

[30] = target: human kinome (Homo sapiens, UniProt P00533, DEL752-759); conditions: EGFR(S752-I759del); 100 nM; read-out: Percent Control
Method: as §1, §2, §3, §4, §5, §6, §7, §8

Chain of human kinome (Homo sapiens, UniProt P42336) (P42336 whole entry): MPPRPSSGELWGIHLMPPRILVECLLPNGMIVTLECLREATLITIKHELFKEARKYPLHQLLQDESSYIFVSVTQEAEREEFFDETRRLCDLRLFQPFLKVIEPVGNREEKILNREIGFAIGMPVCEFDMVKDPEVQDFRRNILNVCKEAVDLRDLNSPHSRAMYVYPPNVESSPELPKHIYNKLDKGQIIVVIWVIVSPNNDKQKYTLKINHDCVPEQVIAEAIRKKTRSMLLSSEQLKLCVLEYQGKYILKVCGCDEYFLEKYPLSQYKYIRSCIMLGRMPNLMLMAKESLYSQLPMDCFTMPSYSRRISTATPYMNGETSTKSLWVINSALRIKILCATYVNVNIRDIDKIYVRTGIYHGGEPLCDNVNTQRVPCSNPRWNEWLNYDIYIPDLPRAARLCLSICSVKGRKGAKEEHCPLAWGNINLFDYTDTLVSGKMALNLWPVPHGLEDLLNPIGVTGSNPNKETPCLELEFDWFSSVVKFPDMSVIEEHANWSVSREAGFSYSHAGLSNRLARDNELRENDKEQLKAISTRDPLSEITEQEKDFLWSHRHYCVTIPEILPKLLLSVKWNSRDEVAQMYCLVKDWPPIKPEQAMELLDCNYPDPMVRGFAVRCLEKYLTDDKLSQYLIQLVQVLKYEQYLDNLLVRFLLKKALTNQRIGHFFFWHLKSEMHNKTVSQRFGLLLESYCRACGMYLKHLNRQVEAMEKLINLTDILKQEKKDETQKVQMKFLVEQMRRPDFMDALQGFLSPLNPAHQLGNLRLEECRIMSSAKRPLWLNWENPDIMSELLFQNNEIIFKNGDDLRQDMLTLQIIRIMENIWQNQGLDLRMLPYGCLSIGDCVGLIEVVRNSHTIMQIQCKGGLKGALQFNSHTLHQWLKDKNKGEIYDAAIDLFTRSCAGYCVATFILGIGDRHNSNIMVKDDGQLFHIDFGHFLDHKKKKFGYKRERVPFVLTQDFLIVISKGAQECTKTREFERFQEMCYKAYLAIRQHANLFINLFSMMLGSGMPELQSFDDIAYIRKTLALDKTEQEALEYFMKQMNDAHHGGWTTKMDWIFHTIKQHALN
Chain of human kinome (Homo sapiens, UniProt Q8NG66) (Q8NG66 whole entry): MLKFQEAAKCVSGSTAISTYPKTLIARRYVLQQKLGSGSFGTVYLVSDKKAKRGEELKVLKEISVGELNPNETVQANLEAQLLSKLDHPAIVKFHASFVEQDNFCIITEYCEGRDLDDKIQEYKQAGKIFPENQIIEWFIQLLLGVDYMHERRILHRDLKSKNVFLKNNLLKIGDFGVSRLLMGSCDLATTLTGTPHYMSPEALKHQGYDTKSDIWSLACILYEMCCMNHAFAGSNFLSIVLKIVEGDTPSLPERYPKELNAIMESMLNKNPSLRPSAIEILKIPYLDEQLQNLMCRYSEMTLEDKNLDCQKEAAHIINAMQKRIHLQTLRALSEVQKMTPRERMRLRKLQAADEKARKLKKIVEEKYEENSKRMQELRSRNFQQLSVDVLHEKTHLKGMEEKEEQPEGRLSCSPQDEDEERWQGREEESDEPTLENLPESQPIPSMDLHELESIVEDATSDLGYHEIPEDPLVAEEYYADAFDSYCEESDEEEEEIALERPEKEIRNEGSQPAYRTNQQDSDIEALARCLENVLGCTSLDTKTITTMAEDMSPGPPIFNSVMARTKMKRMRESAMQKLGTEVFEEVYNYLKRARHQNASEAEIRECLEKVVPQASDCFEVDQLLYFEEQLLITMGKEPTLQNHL
Chain of human kinome (Homo sapiens, UniProt O15530) (O15530 whole entry): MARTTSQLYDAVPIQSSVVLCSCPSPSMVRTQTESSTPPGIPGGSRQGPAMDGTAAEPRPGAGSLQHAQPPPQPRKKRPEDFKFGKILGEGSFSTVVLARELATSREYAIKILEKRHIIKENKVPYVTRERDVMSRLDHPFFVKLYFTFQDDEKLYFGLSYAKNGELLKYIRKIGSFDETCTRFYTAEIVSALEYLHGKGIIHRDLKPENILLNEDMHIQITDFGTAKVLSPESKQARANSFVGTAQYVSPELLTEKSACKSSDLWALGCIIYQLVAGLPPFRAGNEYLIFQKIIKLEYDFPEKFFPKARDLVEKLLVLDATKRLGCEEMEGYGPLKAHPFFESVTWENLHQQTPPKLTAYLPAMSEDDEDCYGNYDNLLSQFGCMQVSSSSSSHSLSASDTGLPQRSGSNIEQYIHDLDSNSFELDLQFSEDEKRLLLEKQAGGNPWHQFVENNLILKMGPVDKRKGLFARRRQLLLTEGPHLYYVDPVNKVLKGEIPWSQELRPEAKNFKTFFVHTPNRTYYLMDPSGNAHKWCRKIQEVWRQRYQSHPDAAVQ
Chain of human kinome (Homo sapiens, UniProt Q96Q40) (Q96Q40 whole entry): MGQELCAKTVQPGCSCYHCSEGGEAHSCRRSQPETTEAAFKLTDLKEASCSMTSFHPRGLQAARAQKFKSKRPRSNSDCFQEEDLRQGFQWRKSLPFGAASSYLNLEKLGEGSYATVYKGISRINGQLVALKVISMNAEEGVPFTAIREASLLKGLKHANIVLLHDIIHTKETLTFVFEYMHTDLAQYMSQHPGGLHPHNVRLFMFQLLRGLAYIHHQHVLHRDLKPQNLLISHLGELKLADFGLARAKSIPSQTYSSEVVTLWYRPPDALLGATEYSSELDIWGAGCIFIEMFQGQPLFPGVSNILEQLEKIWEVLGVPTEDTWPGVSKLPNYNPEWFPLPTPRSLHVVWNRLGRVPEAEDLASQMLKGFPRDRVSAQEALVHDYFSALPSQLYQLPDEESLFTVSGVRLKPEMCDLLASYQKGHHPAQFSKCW
Chain of human kinome (Homo sapiens, UniProt P42336, I800L) (P42336 whole entry I800L): as the sequence (P42336 whole entry) above, with I800L counted along it
Chain of human kinome (Homo sapiens, UniProt Q05655) (Q05655 whole entry): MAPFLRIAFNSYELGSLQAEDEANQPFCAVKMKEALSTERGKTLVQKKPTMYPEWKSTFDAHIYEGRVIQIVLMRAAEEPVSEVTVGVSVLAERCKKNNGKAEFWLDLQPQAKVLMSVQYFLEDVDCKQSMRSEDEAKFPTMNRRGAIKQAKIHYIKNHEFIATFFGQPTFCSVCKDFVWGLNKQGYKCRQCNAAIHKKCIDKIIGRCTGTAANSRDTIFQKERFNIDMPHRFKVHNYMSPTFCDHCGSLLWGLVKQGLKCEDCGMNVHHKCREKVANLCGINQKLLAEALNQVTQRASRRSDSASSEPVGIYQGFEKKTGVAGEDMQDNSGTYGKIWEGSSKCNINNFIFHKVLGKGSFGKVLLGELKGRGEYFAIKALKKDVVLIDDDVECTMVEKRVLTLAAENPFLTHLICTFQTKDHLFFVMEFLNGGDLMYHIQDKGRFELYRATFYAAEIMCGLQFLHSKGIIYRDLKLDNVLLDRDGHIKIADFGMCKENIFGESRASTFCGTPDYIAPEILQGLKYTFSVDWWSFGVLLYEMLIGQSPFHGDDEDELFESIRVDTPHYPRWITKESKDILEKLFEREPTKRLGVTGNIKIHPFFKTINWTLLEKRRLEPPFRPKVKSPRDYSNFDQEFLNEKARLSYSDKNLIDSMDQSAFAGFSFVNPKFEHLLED
Chain of human kinome (Homo sapiens, UniProt Q13882) (Q13882 whole entry): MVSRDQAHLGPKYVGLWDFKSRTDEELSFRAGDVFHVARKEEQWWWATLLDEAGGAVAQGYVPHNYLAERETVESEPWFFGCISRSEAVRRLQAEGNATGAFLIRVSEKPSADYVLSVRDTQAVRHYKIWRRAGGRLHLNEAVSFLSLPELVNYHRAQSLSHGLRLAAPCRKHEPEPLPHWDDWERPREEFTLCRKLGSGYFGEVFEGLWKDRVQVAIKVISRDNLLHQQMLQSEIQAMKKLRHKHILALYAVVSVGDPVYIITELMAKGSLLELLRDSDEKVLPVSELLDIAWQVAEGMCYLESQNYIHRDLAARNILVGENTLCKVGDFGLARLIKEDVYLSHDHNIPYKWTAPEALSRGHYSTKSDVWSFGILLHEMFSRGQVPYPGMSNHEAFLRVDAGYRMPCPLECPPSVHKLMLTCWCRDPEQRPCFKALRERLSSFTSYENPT
Chain of human kinome (Homo sapiens, UniProt P53779) (P53779 whole entry): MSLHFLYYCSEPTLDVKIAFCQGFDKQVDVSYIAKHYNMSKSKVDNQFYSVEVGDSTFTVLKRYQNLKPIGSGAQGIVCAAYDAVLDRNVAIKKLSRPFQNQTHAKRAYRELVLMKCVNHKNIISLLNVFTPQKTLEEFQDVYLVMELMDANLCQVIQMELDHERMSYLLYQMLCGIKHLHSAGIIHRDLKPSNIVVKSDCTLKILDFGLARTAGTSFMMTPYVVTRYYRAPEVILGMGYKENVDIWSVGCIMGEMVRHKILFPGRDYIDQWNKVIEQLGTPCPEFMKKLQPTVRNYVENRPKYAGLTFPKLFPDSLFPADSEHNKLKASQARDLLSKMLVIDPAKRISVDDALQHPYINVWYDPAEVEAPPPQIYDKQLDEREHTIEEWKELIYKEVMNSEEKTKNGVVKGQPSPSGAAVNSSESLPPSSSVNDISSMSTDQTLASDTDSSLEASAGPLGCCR
Chain of human kinome (Homo sapiens, UniProt Q8IW41) (Q8IW41 whole entry): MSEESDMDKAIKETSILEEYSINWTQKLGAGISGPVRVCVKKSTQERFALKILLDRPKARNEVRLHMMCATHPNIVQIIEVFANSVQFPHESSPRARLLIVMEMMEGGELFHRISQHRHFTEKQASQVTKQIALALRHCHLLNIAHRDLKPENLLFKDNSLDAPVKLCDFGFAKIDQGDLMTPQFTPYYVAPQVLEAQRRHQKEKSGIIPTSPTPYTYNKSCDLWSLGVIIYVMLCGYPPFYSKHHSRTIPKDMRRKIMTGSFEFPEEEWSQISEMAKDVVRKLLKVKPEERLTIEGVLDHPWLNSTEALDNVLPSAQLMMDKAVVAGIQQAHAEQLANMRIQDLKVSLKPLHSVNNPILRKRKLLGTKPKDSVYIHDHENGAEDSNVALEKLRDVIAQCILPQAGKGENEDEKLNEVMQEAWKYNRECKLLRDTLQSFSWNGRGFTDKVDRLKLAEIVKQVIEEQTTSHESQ

COc1cc(F)ccc1-c1cc(Nc2cc(CS(C)(=N)=O)ccn2)ncc1F (stereo not drawn) [VIP152]
remaining binding at 0.1 µM ([1]; PIK3CA(I800L), 100 nM): 100%
remaining binding at 1 µM ([1]; kinase PIK3CA(I800L) (Entrez PIK3CA), compound concentration 1000 nM): 98%
remaining binding at 0.1 µM ([2]; NEK11, 100 nM): 100%
remaining binding at 1 µM ([2]; kinase NEK11 (Entrez NEK11), compound concentration 1000 nM): 74%
remaining binding at 0.1 µM [3]: 100%
remaining binding at 0.1 µM [4]: 66%
remaining binding at 1 µM [5]: 56%
remaining binding at 0.1 µM [6]: 100%
remaining binding at 0.1 µM [7]: 94%
remaining binding at 0.1 µM [8]: 89%
remaining binding at 0.1 µM ([9]; PRKCD, 100 nM): 100%
remaining binding at 1 µM ([9]; kinase PRKCD (Entrez PRKCD), compound concentration 1000 nM): 83%
remaining binding at 1 µM [10]: 79%
remaining binding at 0.1 µM ([11]; PDPK1, 100 nM): 100%
remaining binding at 1 µM ([11]; kinase PDPK1 (Entrez PDPK1), compound concentration 1000 nM): 100%
remaining binding at 1 µM [12]: 80%
remaining binding at 0.1 µM [13]: 64%
remaining binding at 0.1 µM [14]: 100%
remaining binding at 0.1 µM ([15]; PFTAIRE2 (Entrez CDK15), 100 nM): 100%
remaining binding at 1 µM ([15]; kinase PFTAIRE2 (Entrez CDK15), compound concentration 1000 nM): 70%
remaining binding at 1 µM [16]: 90%
remaining binding at 0.1 µM [17]: 100%
remaining binding at 1 µM [18]: 60%
remaining binding at 1 µM [19]: 32%
remaining binding at 0.1 µM [20]: 92%
remaining binding at 0.1 µM [21]: 88%
remaining binding at 0.1 µM [22]: 91%
remaining binding at 0.1 µM ([23]; PIK3CA, 100 nM): 100%
remaining binding at 1 µM ([23]; kinase PIK3CA (Entrez PIK3CA), compound concentration 1000 nM): 95%
remaining binding at 0.1 µM [24]: 100%
remaining binding at 0.1 µM [25]: 100%
remaining binding at 1 µM [26]: 92%
remaining binding at 0.1 µM [27]: 100%
remaining binding at 0.1 µM [28]: 100%
remaining binding at 0.1 µM [29]: 100%
remaining binding at 0.1 µM [30]: 100%
